Test results from paper PMC12102759 (Protein Science : A Publication of the Protein Society, 2025).

System: G3BP1 NFT2
Format: binding, human
Settings: library DMS-BM; bait G3BP1 NFT2; prey CAPRIN1; AQMQGPYNFIQDSM(averaged): mean of the two overlapping peptides over the shared positions

Substance	DMS position-specific score (PSSM value) per amino-acid substitution, averaged
AQMQGPYNFIQDSM(averaged) Q2V (AVMQGPYNFIQDSM)	0.04598
AQMQGPYNFIQDSM(averaged) I10A (AQMQGPYNFAQDSM)	0.0009869
AQMQGPYNFIQDSM(averaged) M14D (AQMQGPYNFIQDSD)	0.036
AQMQGPYNFIQDSM(averaged) P6Q (AQMQGQYNFIQDSM)	0.00431
AQMQGPYNFIQDSM(averaged) I10L (AQMQGPYNFLQDSM)	0.1472
AQMQGPYNFIQDSM(averaged) M14Y (AQMQGPYNFIQDSY)	0.01132
AQMQGPYNFIQDSM(averaged) D12E (AQMQGPYNFIQESM)	0.04092
AQMQGPYNFIQDSM(averaged) P6W (AQMQGWYNFIQDSM)	0.02305
AQMQGPYNFIQDSM(averaged) G5D (AQMQDPYNFIQDSM)	0.001672
AQMQGPYNFIQDSM(averaged) Y7W (AQMQGPWNFIQDSM)	0.03599
AQMQGPYNFIQDSM(averaged) A1D (DQMQGPYNFIQDSM)	0.01051
AQMQGPYNFIQDSM(averaged) Q2F (AFMQGPYNFIQDSM)	0.3525
AQMQGPYNFIQDSM(averaged) M3M	0.1084
AQMQGPYNFIQDSM(averaged) Q11W (AQMQGPYNFIWDSM)	0.01601
AQMQGPYNFIQDSM(averaged) Q4A (AQMAGPYNFIQDSM)	0.0506
AQMQGPYNFIQDSM(averaged) Q4P (AQMPGPYNFIQDSM)	0.003604
AQMQGPYNFIQDSM(averaged) N8I (AQMQGPYIFIQDSM)	0.06952
AQMQGPYNFIQDSM(averaged) S13W (AQMQGPYNFIQDWM)	0.01323
AQMQGPYNFIQDSM(averaged) F9W (AQMQGPYNWIQDSM)	0
AQMQGPYNFIQDSM(averaged) N8N	0.08785
AQMQGPYNFIQDSM(averaged) Y7K (AQMQGPKNFIQDSM)	0
AQMQGPYNFIQDSM(averaged) A1T (TQMQGPYNFIQDSM)	0.005821
AQMQGPYNFIQDSM(averaged) Y7R (AQMQGPRNFIQDSM)	0
AQMQGPYNFIQDSM(averaged) F9E (AQMQGPYNEIQDSM)	0
AQMQGPYNFIQDSM(averaged) P6E (AQMQGEYNFIQDSM)	0.004474
AQMQGPYNFIQDSM(averaged) M14F (AQMQGPYNFIQDSF)	0.1772
AQMQGPYNFIQDSM(averaged) Q11G (AQMQGPYNFIGDSM)	0.1489

Substance	DMS position-specific score (PSSM value) per amino-acid substitution, averaged
AQMQGPYNFIQDSM(averaged) F9L (AQMQGPYNLIQDSM)	0.0005113
AQMQGPYNFIQDSM(averaged) P6F (AQMQGFYNFIQDSM)	0.002152
AQMQGPYNFIQDSM(averaged) F9S (AQMQGPYNSIQDSM)	0
AQMQGPYNFIQDSM(averaged) Q2A (AAMQGPYNFIQDSM)	0.04422
AQMQGPYNFIQDSM(averaged) P6A (AQMQGAYNFIQDSM)	0.08584
AQMQGPYNFIQDSM(averaged) M3W (AQWQGPYNFIQDSM)	0.07564
AQMQGPYNFIQDSM(averaged) Y7I (AQMQGPINFIQDSM)	0.113
AQMQGPYNFIQDSM(averaged) Y7N (AQMQGPNNFIQDSM)	0
AQMQGPYNFIQDSM(averaged) I10M (AQMQGPYNFMQDSM)	0.03721
AQMQGPYNFIQDSM(averaged) A1Y (YQMQGPYNFIQDSM)	0.1391
AQMQGPYNFIQDSM(averaged) A1L (LQMQGPYNFIQDSM)	0.06855
AQMQGPYNFIQDSM(averaged) M3L (AQLQGPYNFIQDSM)	0.03704
AQMQGPYNFIQDSM(averaged) M14P (AQMQGPYNFIQDSP)	0
AQMQGPYNFIQDSM(averaged) D12G (AQMQGPYNFIQGSM)	0.006593
AQMQGPYNFIQDSM(averaged) F9M (AQMQGPYNMIQDSM)	0
AQMQGPYNFIQDSM(averaged) M3Q (AQQQGPYNFIQDSM)	0.0638
AQMQGPYNFIQDSM(averaged) Q4N (AQMNGPYNFIQDSM)	0.005313
AQMQGPYNFIQDSM(averaged) Q4G (AQMGGPYNFIQDSM)	0.08843
AQMQGPYNFIQDSM(averaged) M3A (AQAQGPYNFIQDSM)	0.007318
AQMQGPYNFIQDSM(averaged) Q4D (AQMDGPYNFIQDSM)	0.3261
AQMQGPYNFIQDSM(averaged) S13A (AQMQGPYNFIQDAM)	0.1575
AQMQGPYNFIQDSM(averaged) F9Y (AQMQGPYNYIQDSM)	0.002988
AQMQGPYNFIQDSM(averaged) M3E (AQEQGPYNFIQDSM)	0.03003
AQMQGPYNFIQDSM(averaged) M14G (AQMQGPYNFIQDSG)	0.000626
AQMQGPYNFIQDSM(averaged) A1V (VQMQGPYNFIQDSM)	0.05956
AQMQGPYNFIQDSM(averaged) Y7D (AQMQGPDNFIQDSM)	0
AQMQGPYNFIQDSM(averaged) Y7F (AQMQGPFNFIQDSM)	0.03551

Substance	DMS position-specific score (PSSM value) per amino-acid substitution, averaged
AQMQGPYNFIQDSM(averaged) Y7S (AQMQGPSNFIQDSM)	0.06469
AQMQGPYNFIQDSM(averaged) A1P (PQMQGPYNFIQDSM)	0.07411
AQMQGPYNFIQDSM(averaged) M14V (AQMQGPYNFIQDSV)	0.02285
AQMQGPYNFIQDSM(averaged) P6T (AQMQGTYNFIQDSM)	0.1796
AQMQGPYNFIQDSM(averaged) M3S (AQSQGPYNFIQDSM)	0.002665
AQMQGPYNFIQDSM(averaged) M3V (AQVQGPYNFIQDSM)	0.3519
AQMQGPYNFIQDSM(averaged) Q2Q	0.0522
AQMQGPYNFIQDSM(averaged) P6K (AQMQGKYNFIQDSM)	0.01016
AQMQGPYNFIQDSM(averaged) Q11S (AQMQGPYNFISDSM)	0.05986
AQMQGPYNFIQDSM(averaged) M14K (AQMQGPYNFIQDSK)	0.0006833
AQMQGPYNFIQDSM(averaged) G5H (AQMQHPYNFIQDSM)	0.006873
AQMQGPYNFIQDSM(averaged) Q11Q	0.3738
AQMQGPYNFIQDSM(averaged) N8F (AQMQGPYFFIQDSM)	0.00737
AQMQGPYNFIQDSM(averaged) F9F	0.9484
AQMQGPYNFIQDSM(averaged) Q11R (AQMQGPYNFIRDSM)	0.004534
AQMQGPYNFIQDSM(averaged) S13R (AQMQGPYNFIQDRM)	0.001343
AQMQGPYNFIQDSM(averaged) Y7G (AQMQGPGNFIQDSM)	0.05778
AQMQGPYNFIQDSM(averaged) D12T (AQMQGPYNFIQTSM)	0.005851
AQMQGPYNFIQDSM(averaged) S13Q (AQMQGPYNFIQDQM)	0
AQMQGPYNFIQDSM(averaged) N8S (AQMQGPYSFIQDSM)	0.04423
AQMQGPYNFIQDSM(averaged) D12V (AQMQGPYNFIQVSM)	0.005056
AQMQGPYNFIQDSM(averaged) M3D (AQDQGPYNFIQDSM)	0.0976
AQMQGPYNFIQDSM(averaged) Q4V (AQMVGPYNFIQDSM)	0.1002
AQMQGPYNFIQDSM(averaged) G5E (AQMQEPYNFIQDSM)	0.000605
AQMQGPYNFIQDSM(averaged) G5S (AQMQSPYNFIQDSM)	0.1168
AQMQGPYNFIQDSM(averaged) N8Q (AQMQGPYQFIQDSM)	0.04567
